Laboratory results from patent US12435065B2, “Crystalline forms of 1-(1,2-dimethylpropyl)-N-ethyl-5-methyl-N-pyridazin-4-yl-pyrazole-4-carboxamide” (BASF SE, priority 2019, dated 2025).

Columns and labels:
[1] = Suspension of form A and form B in water, solid analysed by PXRD (phase stability); format: physicochemical
Procedure: (§1) Laboratory PXRD patterns were recorded with a PANalytical X'Pert Pro X-ray diffractometer using Cu Kα radiation in reflection geometry (Bragg-Brentano). The sample is placed in a silicon single crystal sample holder of 0.2 mm depth and gently and precisely flattened. The tube voltage is 45 kV and current is 40 mA. The PXRD data are collected at room temperature in the range from 2θ=3.0°-40.0° with increments of 0.017° and measurement time of 20 to 200 s/step.
In a glass tube equipped with a stirring bar 50 mg of form A and 50 mg of form B were suspended in 1 mL water and stirred for 5 days at room temperature. The resulting solid was removed from the mother liquor and analyzed by PXRD.

[2] = Milling of crystalline form B, analysed by PXRD (stability during grinding); format: physicochemical; settings: 100 mg milled for 5 minutes with mortar and pestle
Procedure: as §1
100 mg of crystalline form B obtained by the protocol of example 1 was milled for 5 minutes using mortar and pestel. The crystalline mass was analyzed by powder X-ray diffractometry.

| Structure (SMILES) | Crystal form of the solid after stirring in water (PXRD) ([1]; 50 mg form A and 50 mg form B suspended in 1 mL water, stirred 5 days at room temperature) | Thermodynamic stability relative to crystalline form A ([1]; at least at room temperature) | Crystal form after milling (PXRD) [2] |
| --- | --- | --- | --- |
| CCN(C(=O)c1cnn(C(C)C(C)C)c1C)c1ccnnc1 (stereo not drawn) [form A, 1-(1,2-dimethylpropyl)-N-ethyl-5-methyl-N-pyridazin-4-yl-pyrazole-4-carboxamide] | complied with the data of crystalline form B |  |  |
| CCN(C(=O)c1cnn(C(C)C(C)C)c1C)c1ccnnc1 (stereo not drawn) [form B, 1-(1,2-dimethylpropyl)-N-ethyl-5-methyl-N-pyridazin-4-yl-pyrazole-4-carboxamide] |  | thermodynamically more stable than the crystalline form A | form B was identified |
